Laboratory results published in patent publication EP0003920A1, “Thieno (3,2-c)- and thieno (2,3-c)pyridines, process for their preparation and their therapeutical application” (OMNIUM FINANCIER AQUITAINE POUR L'HYGIENE ET LA SANTE - …, priority 1978, dated 1979).

Tests used:
[1] = Acute toxicity, intravenous LD50 (method of Miller and Tainter); design: species or system souris; conditions: mouse, in vivo, read-out: DL50/24 H/kg de poids corporel
Protocol: En ce qui concerne la toxicité aigüe, la DL50/24 H/kg de poids corporel, déterminée chez la souris selon la méthode de Miller et Tainter pour la voie orale est supérieure à 400 mg pour tous les dérivés.
Selon la même méthode, la DL50/24 H/kg de poids corporel déterminée par la vole intraveineuse est, par exemple, de 154 mg pour le dérivé N° 1, de 89 mg pour le dérivé N° 2, de 184mg pour le dérivé N° 10, de 130 mg pour le dérivé N° 11, de 350mg pour le dérivé N° 12, de 65 mg pour le dérivé N° 18, de 90 mg pour le dérivé N° 22, de 96 mg pour le dérivé N° 24 et de 105 mg pour le dérivé N° 31.

rat [2] = experiment: Anticonvulsant action against electroshock; format: in vivo; conditions: 100 mg/kg oral, electroshock 30 min after treatment, score 0 to 4, untreated controls 4
Protocol: Cette action a été étudiée vis-à-vis des électrochocs. L'application chez le rat d'une stimulation électrique supérieure au seuil électro-convulsivant provoque des convulsions expérimentales. On compare alors chez les animaux témoins et chez les animaux traités, à la fois la présence et la durée de chacune des phases convulsives et l'intensité de la crise dans son ensemble.
On établit des séries de 10 rats par produit à tester et on administre par la voie orale, à chaque animal, 100 mg/kg de ce produit.
De chaque côté de la base de la queue de chaque […], une électrode Cat mise en place et 30 minutes après le traitement, l'animal placé dans une enceinte de verre reçoit pendant 50 millisecondes un courant sinusoïdal de 50 périodes/secondes de 120 volts.
Le passage du courant déclenche une crise convulsive dont chacune des phases (tonique, clonique, relachement musculaire) est chronométrée. L'intensité de la crise est alors notée de 0 à 4 selon la présence de chacune des phases et leur durée. Les produits de l'invention sont testés comparativement au phénobarbital qui possède une action anti-convulsivante marquée (intensité de la crise = 2), alors que chez les animaux témoins non traités c'est l'intensité maxima de 4 qui est obtenue.

rat [3] = experiment: Localised carrageenan-induced oedema; format: in vivo; conditions: 100 mg/kg oral at -1 h, 0 h, +2.5 h
Protocol: Une solution de carragénine (0,1 ml), à 1 %, est injectée dans les fléchisseurs métatarsiens de la patte postérieure droite du rat au temps 0. Les animaux du lot traité reçoivent en outre, par la voie orale, 100 mg par kg du dérivé à tester respectivement 1 heure avant, en même temps que l'injection de l'agent phlogogène, puis 1 heure et 2 heures et demi après. Les mesures qui sont effectuées à l'aide du micromètre de ROGH au temps 0, 1 heure, 2 heures, 3 heures et 5 heures après l'administration de la carragénine permettent de déterminer, en fonction du temps, le pourcentage d'activité anti-inflammatoire, par comparaison avec le lot témoin.

rat [4] = experiment: Generalised ovalbumin oedema; format: in vivo; conditions: po, 100 mg/kg per os 1 h before and together with ovalbumin
Protocol: Une injection intrapéritonéale simultanée de 1 ml d'ovalbumine et de 0,5 ml d'une solution aqueuse de bleu Evans à 1% est effectuée sur le rat. D'autre part, on administre per os aux animaux du lot traité 100 mg/kg du dérivé à tester une heure avant et en même temps que l'ovalbumine. L'intensité du phénomène ainsi provoqué est notée par un chiffre allant de 1 à 5 suivant la progression du syndrome inflammatoire. On détermine ainsi la moyenne de l'intensité oedémateuse et le pourcentage de diminution de la réaction oedémateuse par rapport au témoin, en fonction du temps.

souris = experiment: Potentiation of an infra-hypnotic dose of sodium pentobarbital; format: in vivo; conditions: mouse, 100 mg/kg oral, 30 min before i.p. infra-hypnotic dose of sodium pentobarbital; control 0
Protocol: Les composés de l'invention potentialisent de façon très nette l'action des hypnotiques. En effet, administrés à différents lots de souris par la voie orale, à la dose de 100 mg/ kg, trente minutes avant l'injection intrapéritonéale d'une dose infra-hypnotique de pentobarbital sodique, ils produisent par rapport aux animaux témoins non traités, une nette poten- tialisation de l'action du barbiturique.
En effet, le nombre de souris endormies, le temps moyen d'endormissement et la durée du sommeil sont nettement accrus dans les lots traités. Les résultats des composés les plus actifs sont rassemblés dans le Tableau I suivant.

[5] = 1 h after carrageenan, read-out: Pourcentage d'activité anti-inflammatoire 1ère heure
[6] = 2 h after carrageenan, read-out: Pourcentage d'activité anti-inflammatoire 2ème heure
[7] = 3 h after carrageenan, read-out: Pourcentage d'activité anti-inflammatoire 3ème heure
[8] = 5 h after carrageenan, read-out: Pourcentage d'activité anti-inflammatoire 5ème heure
[9] = 2 h after ovalbumin injection, read-out: Pourcentage d'activité anti-inflammatoire 2ème heure
[10] = 3 h after ovalbumin injection, read-out: Pourcentage d'activité anti-inflammatoire 3ème heure

Structure (SMILES)	LD50 at 24 h [1] [mg/kg]	valeurs moyennes de l'intensité des crises (rat [2])	inhibition in vivo at 100 mg/kg (rat [3]; [5]) [%]	inhibition in vivo at 100 mg/kg (rat [3]; [6]) [%]	inhibition in vivo at 100 mg/kg (rat [3]; [7]) [%]	inhibition in vivo at 100 mg/kg (rat [3]; [8]) [%]	inhibition in vivo at 100 mg/kg (rat [4]; [9]) [%]	inhibition in vivo at 100 mg/kg (rat [4]; [10]) [%]	Pourcentage d'animaux endormis (souris) [%]
CN(C)CCNC(=O)c1cc2sccc2cn1 [Dérivé 2, β -diméthylaminoéthylaminocarbonyl-6 thiéno [3,2-c] pyridine]	89								
CCNC(=O)c1cc2sccc2cn1 [Dérivé 4, Ethylaminocarbonyl-6 thiéno [3,2-c] pyridine]		3	41	46	50	58	47	56	
CC(C)NC(=O)c1cc2ccsc2cn1 [Dérivé 5, Isopropylaminocarbonyl-5 thiéno [2,3-c] pyridine]		2,5	43	49	54	56	52	60	80
CCCCNC(=O)c1cc2sccc2cn1 [Dérivé 6, n-butylaminocarbonyl-6 thiéno [3,2-c] pyridine]									80
CCN(CC)C(=O)c1cc2sccc2cn1 [Dérivé 9, Diéthylaminocarbonyl-6 thiéno[3,2-c] pyridine]		2,5							
O=C(c1cc2sccc2cn1)N1CCCC1 [Dérivé 10, (pyrrolidinyl-1)carbonyl-6 thiéno[3,2-c] pyridine]	184		37	42	46	51	47	55	90
O=C(c1cc2sccc2cn1)N1CCCCC1 [Dérivé 11, Pipéridinocaxbonyl-6 thiéno [3,2-c] pyridine]	130								
O=C(c1cc2sccc2cn1)N1CCOCC1 [Dérivé 12, Morpholinocarbonyl-6 thiéno [3,2-c] pyridine]	350								
O=C(NCc1ccccc1)c1cc2ccsc2cn1 [Dérivé 13, Benzylaminocarbonyl-5 thiéno [2,3-c] pyridine]		3	34	40	45	51	50	56	
O=C(NCCc1ccccc1)c1cc2sccc2cn1 [Dérivé 15, Phénéthylaminocarbonyl-6 thiéno[3,2-c] pyridine]			38	45	49	53	53	60	90
C=CCNC(=O)c1cc2sccc2cn1 [Dérivé 16, Allylaminocarbonyl-6 thiéno [3,2-c] pyridine]									70
O=C(NCCN1CCOCC1)c1cc2sccc2cn1 [Dérivé 19, β -morpholinoéthylaminocarbonyl-6 thiéno[3,2-c] pyridine]		2,5							
O=C(NCc1ccncc1)c1cc2ccsc2cn1 [Dérivé 21, (pyridyl-4-méthyl)aminocarbonyl-5-thiéno[2,3-c] pyridine]			40	48	51	54	45	52	
O=C(NCc1cccnc1)c1cc2ccsc2cn1 [Dérivé 23, (pyridyl-3 méthyl)aminocarbonyl-5 thiéno [2,3-c]pyridine]									80
O=C(NCc1cccnc1)c1cc2sccc2cn1 [Dérivé 24, (pyridyl-3 méthyl)aminocarbonyl-6 thiéno[3,2-c] pyridine]	96								
O=C(Nc1cccc(C(F)(F)F)c1)c1cc2sccc2cn1 [Dérivé 25, (trifluorométhyl-3 phényl)aminocarbonyl-6 thiéno[3,2-c] pyridine]		2,5	39	46	49	52	51	59	90
Cc1ccc(N2CCN(C(=O)c3cc4sccc4cn3)CC2)cc1 [Dérivé 26, (p-tolyl-4 pipérazinyl-1)carbonyl-6 thiéno[3,2-c]bvridine]									90
O=C(c1cc2sccc2cn1)N1CCN(c2ccccc2Cl)CC1 [Dérivé 27, (o-chlorophényl-4 pipérazinyl-1) carbonyl-6 thiéno[3,2-c] pyridine]			41	49	52	54	47	56	
O=C(c1cc2sccc2cn1)N1CCN(c2cccc(Cl)c2)CC1 [Dérivé 28, (m-chlorophényl-4 pipérazinyl-1)carbonyl-6 thiéno[3,2-c] pyridine]									80
COc1ccc(N2CCN(C(=O)c3cc4sccc4cn3)CC2)cc1 [Dérivé 29, (p-méthoxyphényl-4 pipérazinyl-1) carbonyl-6 tniéno[3,2-c] pyridine]									90
COc1ccccc1N1CCN(C(=O)c2cc3ccsc3cn2)CC1 [Dérivé 30, (o-méthoxyphényl-4 pipérazinyl-1) carbonyl-5 thiéno[2,3-c] pyridine]		2,5	38	45	49	53	48	56	
NC(=O)c1cc2ccsc2cn1 [Dérivé 32, Carbamoyl-5 thiéno [2,3-c] pyridine]			34	41	45	47	52	60	
CCC1(c2ccccc2)C(=O)NC(=O)NC1=O [phénobarbital, reference compound]		2							
